Read-outs that look alike come from different tables or passages of the source. One block for each compound: values may come before it.
Test system: Human lung cancer cell line A549 cells
Settings: 72 hours, MTT, 0.001-10 μM tested
[1] = read-out: 50% Growth inhibitory concentrations of the subject compounds with respect to A549 cells, Experiment 1
[2] = read-out: 50% Growth inhibitory concentrations of the subject compounds with respect to A549 cells, Experiment 2
[3] = read-out: 50% Growth inhibitory concentrations of the subject compounds with respect to A549 cells, Experiment 3

Description: Human lung cancer cell line A549 cells were plated at a density of 800 cells/200 μl in a 96-well plate using RPMI1640 (Gibco BRL) (containing 10% Fetal Bovine Serum (Hyclone)) for the medium followed by culturing overnight in 5% CO2 at 37° C. Each 2-5A analog was added to each well so that the final concentration became 0.001-10 μM, followed by culturing for 72 hours (3 days) (n=3 or 4). After culturing for 72 hours (3 days), MTT (3-[4,5-dimethylthiazol-2-yl]-2,5-diphenyltetrazolium bromide) was added in 50 μl aliquots to each well at a MTT/RPMI1640 concentration of 5 mg/ml, followed by additionally culturing for 4 hours. After 4 hours, the medium was removed and 150 μl of dimethyl sulfoxide were added to each well. After shaking for 5 minutes, UV absorbance at 540 nm, was measured to determine the relative ratio of the number of viable cells of the compound dose group to the number of viable cells of an untreated cell group followed by calculation of the IC50 concentration that inhibits cell growth by 50%.

SMILES: Nc1ncnc2c1ncn2[C@@H]1O[C@H](COP(O)(=S)OC2C(O)[C@@H](COP(O)(=S)OC3C(O)[C@@H](COP(O)(O)=S)O[C@H]3n3cnc4c(N)ncnc43)O[C@H]2n2cnc3c(N)ncnc32)C(O)C1O (some centres unmarked) [Example 4]
- IC50 [1]: 480 nM
- IC50 [2]: 610 nM
- IC50 [3]: 380 nM

SMILES: CCCCCCCCCC(=O)OCCSP(=O)(O)OC[C@H]1O[C@@H](n2cnc3c(N)ncnc32)C(OP(=O)(O)OC[C@H]2O[C@@H](n3cnc4c(N)ncnc43)C(OP(=O)(O)OC[C@]34CCCOC3C(O)[C@H](n3cnc5c(N)ncnc53)O4)C2O)C1OC (some centres unmarked) [Example 17]
- IC50 [2]: 350 nM

SMILES: COC1C(OP(=O)(S)OC[C@H]2O[C@@H](n3cnc4c(N)ncnc43)C(OP(=O)(O)OC[C@]34CCCOC3C(O)[C@H](n3cnc5c(N)ncnc53)O4)C2O)[C@H](n2cnc3c(N)ncnc32)O[C@@H]1COP(=O)(O)SCOC(=O)C(C)(C)C (some centres unmarked) [Example 9]
- IC50 [1]: 1390 nM

SMILES: COC1C(OP(=O)(O)OC[C@H]2O[C@@H](n3cnc4c(N)ncnc43)C(OP(=O)(O)OC[C@]34CCCOC3C(O)[C@H](n3cnc5c(N)ncnc53)O4)C2O)[C@H](n2cnc3c(N)ncnc32)O[C@@H]1COP(O)(O)=S (some centres unmarked) [Example 2]
- IC50 [1]: 1530 nM
- IC50 [2]: 910 nM

SMILES: COC1C(OP(=O)(O)OC[C@H]2O[C@@H](n3cnc4c(N)ncnc43)C(OP(=O)(O)OC[C@]34CCCOC3C(O)[C@H](n3cnc5c(N)ncnc53)O4)C2O)[C@H](n2cnc3c(N)ncnc32)O[C@@H]1COP(=O)(O)SCOC(=O)C(C)(C)C (some centres unmarked) [Example 5]
- IC50 [1]: 400 nM
- IC50 [2]: 320 nM

SMILES: CCCCCCCCCCCCCC(=O)OCCSP(=O)(O)OC[C@H]1O[C@@H](n2cnc3c(N)ncnc32)C(OP(=O)(O)OC[C@H]2O[C@@H](n3cnc4c(N)ncnc43)C(OP(=O)(O)OC[C@]34CCCOC3C(O)[C@H](n3cnc5c(N)ncnc53)O4)C2O)C1OC (some centres unmarked) [Example 16]
- IC50 [2]: 90 nM

- IC50 [1]: 2230 nM
SMILES: Nc1ncnc2c1ncn2[C@@H]1O[C@@]2(COP(=O)(O)OC3C(O)[C@@H](COP(=O)(S)OC4C(O)[C@@H](COP(=O)(O)S)O[C@H]4n4cnc5c(N)ncnc54)O[C@H]3n3cnc4c(N)ncnc43)CCCOC2C1O (some centres unmarked) [Example 8]

SMILES: COC1C(OP(=O)(O)OC[C@H]2O[C@@H](n3cnc4c(N)ncnc43)C(OP(=O)(O)OC[C@]34CCCOC3C(O)[C@H](n3cnc5c(N)ncnc53)O4)C2O)[C@H](n2cnc3c(N)ncnc32)O[C@@H]1COP(=O)(O)SCCOC(=O)C(C)(C)C (some centres unmarked) [Example 13]
- IC50 [2]: 2540 nM

SMILES: COC1C(OP(=O)(O)OC[C@H]2O[C@@H](n3cnc4c(N)ncnc43)C(OP(=O)(O)OC[C@]34CCCOC3C(O)[C@H](n3cnc5c(N)ncnc53)O4)C2O)[C@H](n2cnc3c(N)ncnc32)O[C@@H]1COP(=O)(O)SCCO (some centres unmarked) [Example 33]
- IC50 [3]: 2150 nM

SMILES: COC1C(OP(=O)(O)OC[C@H]2O[C@@H](n3cnc4c(N)ncnc43)C(OP(=O)(O)OC[C@]34CCCOC3C(O)[C@H](n3cnc5c(N)ncnc53)O4)C2O)[C@H](n2cnc3c(N)ncnc32)O[C@@H]1COP(=O)(O)SCCOC(=O)c1ccccc1 (some centres unmarked) [Example 14]
- IC50 [2]: 2340 nM

— patent US7651999B2, “2′, 5′-oligoadenylate analogs” (Sankyo Company, Limited, priority 2002, dated 2010)
